Source: patent US20120251584A1, “Combination pharmaceutical composition and methods of treating diseases or conditions associated with the cardiovascular system” (priority 2010, published 2012)

Legend:
[1] = tested on: NISAG line male rats with hereditary stipulated stress-sensitive arterial hypertension; test: NISAG rat hypertension model, systolic blood pressure; assay type: in vivo
Procedure: Investigations were conducted on 50 NISAG line male rats (weight 300 g, age 4 months) with hereditary stipulated stress-sensitive arterial hypertension, which were divided into 5 groups by 10 animals each.
Two times a week, 2 to 6 hours after administration of ULD antibodies and losartan, systolic blood pressure (SBP) was measured by an indirect method in a tail artery (using a cuff).

[2] = tested on: female Wistar rats with chronic heart failure (CHF); test: Chronic heart failure (CHF) model induced by isadrine in rats: electrocardiogram, rheogram, exercise tolerance; settings: change in % on Day 28 vs. Day 7, gastric gavage
Procedure: Study of the efficacy of the combined drug based on ultra-low doses (ULD), i.e. the activated-potentiated solutions as described above, of antibodies to a C-terminal fragment of angiotensin II AT1 receptor and antibodies to endothelial NO synthase (mixture of homeopathic dilutions C12, C30 and C200) in chronic heart failure (CHF) was conducted in 75 female Wistar rats (4-5 months old, weighing 220-250 g).
For chronic heart failure modeling all rats were receiving isadrine (isoproterenol hydrochloride, Sigma, Germany) 80 mg/kg twice with 24-hour interval. Animals (15 per group) were receiving the following drugs by gastric gavage: group 1 —7.5 mL/kg of ULD of antibodies against a C-terminal fragment of angiotensin II AT1 receptor (mixture of homeopathic dilutions C12, C30 and C200), group 2 —7.5 mL/kg of ULD of anti-endothelial NO synthase antibodies (mixture of homeopathic dilutions C12, C30 and C200), group 3 —15 mL/kg of combined drug (mixture of homeopathic dilutions C12, C30 and C200), group 4 —7.5 mL/kg (dose of 10 mg/kg) of losartan as a comparator, group 5 (control)—7.5 mL/kg of distilled water.

[3] = tested on: Wistar rats with L-NAME endothelial dysfunction; test: Correction of endothelial dysfunction simulated by L-NAME in rats; assay type: in vivo, rat
Procedure: Wistar rats weighed 250-300 g were divided into 4 groups. The 1st group received distilled water 9 ml/kg/day (every day, gastrointestinal introduction). […] The third group received L-NAME (12.5 mg/kg) in combination with a mixture of C12, C30, and C200 homeopathic dilutions of polyclonal rabbit antibodies to human endothelial NO synthase at 9 ml/kg/day. The 4th group received L-NAME ([…]) in combination with a mixture of C12, C30, and C200 homeopathic dilutions of polyclonal rabbit antibodies to human endothelial NO synthase at 9 ml/kg/day and mixture of C12, C30, C200 homeopathic dilutions of polyclonal rabbit antibodies to a C-terminal fragment of AT1 receptor of angiotensin II at 9 ml/kg/day.
Endothelial dysfunction was simulated by introducing L-NAME at […] in the course of 28 days. On day 29 from the beginning of the experiment, under anesthesia (sodium thiopental at 50 mg/kg), a catheter was inserted into the left carotid artery to register parameter of arterial pressure (AP). Bolus introduction of the pharmacological agent was made into right femoral vein. The following parameters were measured: systolic arterial pressure (SAP), diastolic arterial pressure (DAP), and frequency of heart beat, which were measured in real time by sensor TSD104A measurement apparatus MP100 made by Biopac System, Inc., USA. The following functional probes were used: endothelium-dependent vasodilation (EDV), intra-vein introduction of acetylcholine (AC) in the dose of 40 μg/kg, endothelium-independent vasodilation (EIV) via intravein introduction of sodium nitroprusside at 30 μ/kg.
The degree of endothelial dysfunction was evaluated via the coefficient of endothelial dysfunction as the ratio of the area of the triangle under the trend of reaction of stabilization of arterial pressure (AP) as a response to introduction of nitroprusside to the area of the triangle under the trend of reaction of stabilization of arterial pressure as a response to introduction of acetylcholine.

[4] = functional probe: Acetyl choline 40 μg/kg, day 29
[5] = functional probe: Initial, day 29, L-NAME 28 days
[6] = functional probe: Sodium Nitroprusside, day 29

Compound	Δ in comparison with the initial level, in mmHg ([1]; SBP after 28 days vs initial) [mmHg]	% of the initial level ([1]; SBP change after 28 days vs initial) [%]	Initial SBP in mmHg ([1]; before treatment) [mmHg]	SBP after 28 days of medicine administration in mmHg ([1]; per orally once a day for 28 days) [mmHg]	Cardiac output [2] [%]	Heart rate [2] [%]	Systolic volume (by Kubrick) [2] [%]	T-wave amplitude [2] [%]	Vascular reaction observed with EDV with acetyl choline ([3]; area under the curve of restoration of arterial pressure, Acetyl choline probe)	Vascular reaction observed with EIV with sodium nitroprusside ([3]; area under the curve of restoration of arterial pressure, Sodium Nitroprusside probe)	DAP [3, 4] [mm HG]	SAP [3, 4]	DAP [3, 5] [mm HG]	SAP [3, 5]	DAP [3, 6] [mm HG]	SAP [3, 6]	CED (coefficient of endothelial dysfunction) ([3]; ratio of nitroprusside area to acetylcholine area) [relative units]
CCCCc1nc(Cl)c(CO)n1Cc1ccc(-c2ccccc2-c2nn[nH]n2)cc1 [Losartan, losartan]	−33	−19	173.5	140.5	55.31	−21.28	64.01	−31.64	–	–	–	–	–	–	–	–	–
COC(=O)[C@@H](N)CCCNC(=N)N[N+](=O)[O-] [L-NAME, L-NG-nitroarginine methyl ester]	–	–	–	–	–	–	–	–	3700.2 ± 536.9	11922.8 ± 1838.9	64.7 ± 4.3	111.3 ± 7.4 mm, HG	164.2 ± 5.9	204.8 ± 10 mm, HG	61.4 ± 4.4	118.2 ± 9.9 mm, HG	3.5 ± 0.5
